≈ marks a conversion by molar mass, not a printed value.
Legend:
Format in all cases: cell-based
[1] = test system: ATCC13883 strain (Klebsiella pneumoniae); test: Checkerboard antibacterial synergistic activity test with polymyxin E (FIC); design: key: FIC≤0.5 synergy; 0.5–1 additive; 1–2 indifferent; ≥2 antagonism; settings: combined with polymyxin E
How it was run: (§1)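 Broth checkerboard synergy with colistin; listed dilutions are working solutions, not final well levels. Overnight incubation, 16 h at 37° C.; FIC ≤0.5 denotes synergy, ≥2 antagonism.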

[2] = test system: ATCC19606 strain (Acinetobacter baumannii); test: as above; design: key: FIC≤0.5 synergy; 0.5–1 additive; 1–2 indifferent; ≥2 antagonism; settings: combined with polymyxin E
How it was run: as §1

[3] = test system: ATCC25922 strain (Escherichia coli); test: as above; design: key: FIC≤0.5 synergy; 0.5–1 additive; 1–2 indifferent; ≥2 antagonism; settings: combined with polymyxin E
How it was run: as §1

[4] = test system: ATCC9027 strain (Pseudomonas aeruginosa); test: as above; design: key: FIC≤0.5 synergy; 0.5–1 additive; 1–2 indifferent; ≥2 antagonism; settings: combined with polymyxin E
How it was run: as §1

[5] = test system: ATCC13883 strain (Klebsiella pneumoniae); test: Broth microdilution, antibacterial activity of the compound used alone
From the text: (§2) The broth microdilution method was used to test the antibacterial effects of the compounds of the present invention against various Gram-negative bacterial strains when used alone.

[6] = test system: ATCC19606 strain (Acinetobacter baumannii); test: as above
From the text: as §2

[7] = test system: ATCC25922 strain (Escherichia coli); test: as above
From the text: as §2

[8] = test system: ATCC9027 strain (Pseudomonas aeruginosa); test: as above
From the text: as §2

MIC ([5]; read-out: Antibacterial activity of the compound of Formula I, ATCC13883)	MIC ([6]; read-out: Antibacterial activity of the compound of Formula I, ATCC19606)	MIC ([7]; read-out: Antibacterial activity of the compound of Formula I, ATCC25922)	MIC ([8]; read-out: Antibacterial activity of the compound of Formula I, ATCC9027)	Structure (SMILES)	Synergistic activity (FIC value) ATCC13883 [1]	Synergistic activity (FIC value) ATCC19606 [2]	Synergistic activity (FIC value) ATCC25922 [3]	Synergistic activity (FIC value) ATCC9027 [4]	Antibacterial activity of the compound of Formula I, ATCC13883 [5]	Antibacterial activity of the compound of Formula I, ATCC19606 [6]	Antibacterial activity of the compound of Formula I, ATCC25922 [7]	Antibacterial activity of the compound of Formula I, ATCC9027 [8]
–	–	–	–	NC(N)=Nc1nc(-c2cccc(NC(=O)NC3CC3)c2)cs1 [Compound I-31]	0.31	0.25	0.56	0.5	256 µg/mL	256 µg/mL	256 µg/mL	256 µg/mL
–	–	–	–	NC(N)=Nc1nc(-c2ccc(OCc3ccccc3)cc2)cs1 [Compound I-9]	0.16	0.13	0.26	0.31	256 µg/mL	256 µg/mL	256 µg/mL	256 µg/mL
–	–	–	–	CC(C)=CCOc1ccc(-c2csc(N=C(N)N)n2)cc1 [Compound I-48]	0.51	0.16	0.51	0.75	256 µg/mL	256 µg/mL	256 µg/mL	256 µg/mL
–	–	–	–	NC(N)=Nc1nc(-c2cccc3ncsc23)co1 [Compound I-71]	0.19	0.13	0.52	1.25	256 µg/mL	256 µg/mL	256 µg/mL	256 µg/mL
–	–	–	–	Cc1ccc(O)c(-c2c[nH]c(N=C3NCCCN3)n2)c1 [Compound I-170]	0.31	0.12	0.38	0.31	256 µg/mL	256 µg/mL	256 µg/mL	256 µg/mL
–	–	–	–	CC(C)c1cc(-c2c[se]c(N=C(N)N)n2)cc(C(C)C)c1 [Compound I-18]	0.33	0.15	0.39	0.62	256 µg/mL	256 µg/mL	256 µg/mL	256 µg/mL
256 µg/mL (≈ 825 µM)	256 µg/mL (≈ 825 µM)	256 µg/mL (≈ 825 µM)	256 µg/mL (≈ 825 µM)	NC(N)=Nc1nc(-c2ccccc2Oc2ccccc2)cs1 [Compound I-1, 2-(4-(2-phenoxyphenyl)thiazol-2-yl)guanidine]	0.53	1.25	1.25	0.52	–	–	–	–
–	–	–	–	NC(N)=Nc1nc(-c2cccc(N3CCOCC3)c2)cs1 [Compound I-120]	0.28	1.25	0.75	0.25	256 µg/mL	256 µg/mL	256 µg/mL	256 µg/mL
–	–	–	–	NC(N)=Nc1nc(-c2ccccc2Oc2ccc(I)cc2I)cs1 [Compound I-87]	0.16	0.03	0.18	0.28	256 µg/mL	256 µg/mL	256 µg/mL	256 µg/mL
–	–	–	–	CC(C)c1cc(-c2coc(N=C(N)N)n2)cc(C(C)C)c1O [Compound I-19]	0.31	0.12	0.38	0.31	256 µg/mL	256 µg/mL	256 µg/mL	256 µg/mL
–	–	–	–	COc1ccccc1-c1csc(N=C(N)N)n1 [Compound I-4]	1.25	1.25	0.5	1.25	256 µg/mL	256 µg/mL	256 µg/mL	256 µg/mL
–	–	–	–	CN(C)c1ccc(-c2nc(N=C(N)N)[nH]c2Cl)c(-c2ccco2)c1 [Compound I-78]	0.38	0.75	0.5	0.63	256 µg/mL	256 µg/mL	256 µg/mL	128 µg/mL
–	–	–	–	Nc1cc(Oc2ccccc2)cc(-c2c[nH]c(N=C3NCCCN3)n2)c1 [Compound I-135]	0.75	0.26	0.51	0.53	256 µg/mL	256 µg/mL	256 µg/mL	256 µg/mL
–	–	–	–	COc1ccc(Oc2cc(Br)cc(-c3csc(N=C4NCCCN4)n3)c2)c(OC)c1 [Compound I-159]	0.09	0.31	0.14	0.06	256 µg/mL	256 µg/mL	256 µg/mL	256 µg/mL
–	–	–	–	Cc1ccccc1Oc1cccc(-c2coc(N=C3NCCCN3)n2)c1 [Compound I-152]	0.19	0.38	0.04	0.04	256 µg/mL	256 µg/mL	256 µg/mL	256 µg/mL
–	–	–	–	Cc1sc(N=C2NCCCN2)nc1-c1ccccc1Oc1ccccc1Cl [Compound I-145]	0.13	0.04	0.2	0.28	256 µg/mL	256 µg/mL	256 µg/mL	256 µg/mL
–	–	–	–	NC(N)=Nc1nc(-c2ccc3c(c2)COc2c-3ccc3c2C(=O)CCC3)cs1 [Compound I-119]	0.19	1.25	1.25	1.25	256 µg/mL	256 µg/mL	256 µg/mL	256 µg/mL
–	–	–	–	CSc1cc2c(Cl)cccn2c1-c1nc(N=C2NCCCN2)sc1Cl [Compound I-196]	0.19	0.13	0.52	1.25	256 µg/mL	256 µg/mL	256 µg/mL	256 µg/mL

From patent US20260250257A1, “ANTIBACTERIAL AND SYNERGISTIC ACTIVE COMPOUND AND USE THEREOF” (EAST CHINA UNIVERSITY OF SCIENCE AND TECHNOLOGY, priority 2023, published 2026)
